We go through 16 compounds from patent publication US20260085062A1, “NOVEL COMPOUNDS AS CK2 INHIBITORS” (Cambridge Enterprise Limited, priority 2022, published 2026).

One assay deals with T1, intracellular CK2α (Homo sapiens, UniProt P19784).
T1 construct: host or cells: HCT116 (ATCC CCL-247)
Kind of assay: Cell-based NanoBRET assay for inhibitor binding to intracellular CK2α. Particulars: HCT116 cells transiently transfected with CSNK2A2-NanoLuc fusion vector; Tracer K-5; 2 h; read-out: Assay 3: NanoBRET ™ assay for binding to intracellular CK2α. On the procedure:
This assay used the NanoBRET™ System (Promega), an energy transfer technique designed to measure molecular proximity in living cells. The assay measured the apparent affinity of test compounds by competitive displacement of a NanoBRET™ tracer reversibly bound to a NanoLucR luciferase CK2α fusion protein in cells. A fixed concentration of tracer was added to cells expressing the desired NanoLucR-CK2α fusion protein to generate a BRET reporter complex. […] Donor emission wavelength (450 nm) and acceptor emission wavelength (610 nm or 630 nm) were measured on the Envision (Perkin-Elmer) and BRET ratio calculated for data analysis: BRET Ratio=(Acceptorsample/Donorsample)×1,000. • 7.

Another assay has as its target T2, CK2α (Homo sapiens, UniProt P68400).
T2 construct: CK2α (residues 2-329) was produced in Escherichia coli BL21 (DE3) for kinase activity screening; His6 (N, cleaved yes); made in house; host or cells: Escherichia coli BL21 (DE3)
T2 sequence (P68400 2-329): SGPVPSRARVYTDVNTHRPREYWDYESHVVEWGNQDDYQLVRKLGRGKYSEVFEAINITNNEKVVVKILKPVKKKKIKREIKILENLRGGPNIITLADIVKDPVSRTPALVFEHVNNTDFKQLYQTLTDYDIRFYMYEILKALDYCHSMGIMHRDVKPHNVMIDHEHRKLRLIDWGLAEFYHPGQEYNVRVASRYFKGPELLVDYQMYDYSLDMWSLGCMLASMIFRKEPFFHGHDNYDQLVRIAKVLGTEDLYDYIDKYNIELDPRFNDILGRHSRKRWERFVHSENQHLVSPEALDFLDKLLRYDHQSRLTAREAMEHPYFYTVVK
Nature of the assay: Biochemical assay for inhibitors of CK2α kinase activity (ADP-Glo). To be noted: 0.2 nM CK2α, 50 μM peptide substrate, 15 μM ATP, read-out: Assay 1: CK2α Enzyme IC50. How it is done:
The inhibitory activity of putative kinase inhibitors and the potency of selected compounds were determined using ADP-Glo™ assay. The kinase reaction was performed in the presence of excess peptide substrate and ATP at a concentration equivalent to Km. Upon termination of the kinase reaction, remaining ATP was depleted leaving only ADP reaction product, which was converted back to ATP with a coupled luciferin/luciferase reaction. The luminescent output from the coupled reaction was quantified and correlated with the kinase activity. […] Single colonies of the cells were grown in 6×1 L of 2×TY with 100 μg/mL ampicillin at 37° C. […] The cells were incubated overnight at 25° C. then harvested by centrifugation at 4,000 g for 20 minutes. The cell pellets were suspended in 20 mM Tris, 500 mM NaCl, pH 8.0 and lysed using a high pressure homogenizer. Protease inhibitor cocktail tablets (one tablet per 50 mL extract; Roche Diagnostics) and DNase I were then added. The crude cell extract was then centrifuged at 10,000 g for 45 minutes, the supernatant was filtered with a 0.22 μm filter. The soluble supernatant was applied on a Ni Sepharose Fast Flow6 column at pH 8.0, washed and eluted in 20 mM Tris pH 8.0, 500 mM NaCl, 200 mM imidazole. […] The cleaved protein was further purified on a Sepharose Q HP anion-exchange column and the main peak fraction from this column was further purified by gel filtration on a Superdex 75 16/60 HiPrep column equilibrated with Tris 20 mM, pH 8.0, 500 mM NaCl. Pure protein was concentrated to 15 mg/mL and flash frozen in liquid nitrogen. […] The assay was conducted as follows: • 1. […] After 120 minutes, the reaction was stopped by addition of 5 pl ADP-Glo reagent (Promega V9102) and the plate incubated at RT for a further 60 minutes. • 5. 10 μL of Kinase Detection reagent (Promega V9102) was added to assay plate and incubated for a further 30 minutes prior to reading luminescence on an Envision (Perkin-Elmer). Data was analysed to calculate compound IC50and Ki as follows: • 1. […] Percent activity was calculated for each well using: (Test well reading−MEAN100%inhibition control wells)/(MEAN0% inhibition control wells−MEAN100%inhibition control wells). • 5. Morrison Ki was determined using Morrison Ki equation (XL-fit).

A further assay has as its target T3, CLK2 (Homo sapiens, UniProt P49760).
T3 construct: purchased Carna Biosciences 04-127
Nature of the assay: Biochemical assay for inhibitors of CLK2 kinase activity (ADP-Glo). Particulars: 20 nM CLK2, 50 μM peptide substrate, 100 μM ATP, read-out: Assay 2: CLK2 Enzyme IC50. How it is done: The inhibitory activity of putative kinase inhibitors and the potency of selected compounds were determined using ADP-GloTM assay. The kinase reaction was performed in the presence of excess peptide substrate and ATP at a concentration equivalent to Km. Upon termination of the kinase reaction, remaining ATP was depleted leaving only ADP reaction product, which was converted back to ATP with a coupled luciferin/luciferase reaction. The luminescent output from the coupled reaction was quantified and correlated with the kinase activity. […] The assay was conducted as follows: • 1. […] After 120 minutes, the reaction was stopped by addition of 5 pl ADP-Glo reagent (Promega V9102) and the plate incubated at RT for a further 60 minutes. • 5. 10 μL of Kinase Detection reagent (Promega V9102) was added to assay plate and incubated for a further 30 minutes prior to reading luminescence on an Envision (Perkin-Elmer). Data was analysed to calculate compound IC50and Ki as follows: • 1. […] Morrison Ki was determined using Morrison Ki equation (XL-fit).

Where only a bound is given, the exact number is not on record here.

T1 sequence (P19784 whole entry): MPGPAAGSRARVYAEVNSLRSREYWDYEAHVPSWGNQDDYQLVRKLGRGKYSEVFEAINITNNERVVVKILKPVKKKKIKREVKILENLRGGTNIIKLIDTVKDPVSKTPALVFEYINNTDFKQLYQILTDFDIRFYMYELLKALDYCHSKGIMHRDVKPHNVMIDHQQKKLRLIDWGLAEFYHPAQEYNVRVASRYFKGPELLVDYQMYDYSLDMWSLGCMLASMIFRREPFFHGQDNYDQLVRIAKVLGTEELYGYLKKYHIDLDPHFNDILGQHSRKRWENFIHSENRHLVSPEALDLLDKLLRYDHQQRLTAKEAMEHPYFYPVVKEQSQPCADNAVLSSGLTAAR
T3 sequence (P49760 whole entry): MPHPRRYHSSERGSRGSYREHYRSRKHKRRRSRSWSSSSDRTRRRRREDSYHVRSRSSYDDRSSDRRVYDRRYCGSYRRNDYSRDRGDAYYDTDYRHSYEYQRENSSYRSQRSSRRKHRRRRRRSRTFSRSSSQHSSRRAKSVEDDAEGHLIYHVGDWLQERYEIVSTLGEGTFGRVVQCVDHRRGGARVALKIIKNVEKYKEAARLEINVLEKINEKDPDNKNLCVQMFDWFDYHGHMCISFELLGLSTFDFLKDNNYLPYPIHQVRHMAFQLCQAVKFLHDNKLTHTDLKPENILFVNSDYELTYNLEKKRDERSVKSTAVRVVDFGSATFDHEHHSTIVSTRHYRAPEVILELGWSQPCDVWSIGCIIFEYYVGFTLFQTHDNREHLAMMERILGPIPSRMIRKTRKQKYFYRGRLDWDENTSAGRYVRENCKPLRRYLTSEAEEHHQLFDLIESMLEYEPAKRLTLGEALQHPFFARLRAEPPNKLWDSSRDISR

Consider `O=C(CCNCc1ccc(-c2ccccc2)c(Cl)c1)NCCCNc1cc(-c2ccncc2)cc2[nH]ncc12` [Example 1, 3-(((2-Chloro-[1,1′-biphenyl]-4-yl)methyl)amino)-N-(3-((6-(pyridin-4-yl)-1H-indazol-4-yl)amino)propyl)propanamide], for which the IC50 at intracellular CK2α was determined as 124 nM; on CK2α it was 1.38 nM; at CLK2, 226 nM.

As to `NC(=O)c1cc(NCCCNC(=O)CCNCc2ccc(-c3ccccc3)c(Cl)c2)c2cn[nH]c2c1` [Example 2, 4-((3-(3-(((2-chloro-[1,1′-biphenyl]-4-yl)methyl)amino)propanamido)propyl)amino)-1H-indazole-6-carboxamide], the results for the IC50 on intracellular CK2α, on CK2α and on CLK2 were 5880 nM, 12.5 nM and 1230 nM, respectively.

For `O=C(CCNCc1ccc(-c2ccccc2)c(Cl)c1)NCCCNc1cc(-c2cn[nH]c2)cc2[nH]ncc12` [Example 3, N-(3-((6-(1H-pyrazol-4-yl)-1H-indazol-4-yl)amino)propyl)-3-(((2-chloro-[1,1′-biphenyl]-4-yl)methyl)amino)propanamide], the IC50 on intracellular CK2α was found to be 135 nM; on CK2α, 0.77 nM; on CLK2 it was 33.4 nM.

Consider `O=C(CCNCc1ccc(-c2ccccc2)c(Cl)c1)NCCCNc1cc(-n2cncn2)cc2[nH]ncc12` [Example 4, N-(3-((6-(1H-1,2,4-triazol-1-yl)-1H-indazol-4-yl)amino)propyl)-3-(((2-chloro-[1,1′-biphenyl]-4-yl)methyl)amino)propanamide], for which the IC50 on intracellular CK2α is 242 nM; at CK2α, 3.63 nM; at CLK2, 1010 nM.

In the case of `O=C(CCNCc1ccc(OC(F)(F)F)c(Cl)c1)NCCCNc1cc(-c2ccncc2)cc2[nH]ncc12` [Example 5, 3-((3-Chloro-4-(trifluoromethoxy)benzyl)amino)-N-(3-((6-(pyridin-4-yl)-1H-indazol-4-yl)amino)propyl)propanamide], the IC50 stood at 240 nM at intracellular CK2α, 2.15 nM at CK2α and 306 nM at CLK2.

Regarding `O=C(CCNCc1ccc(-c2ccccc2)c(Cl)c1)NCCCNc1cc(-c2ccnnc2)cc2[nH]ncc12` [Example 6, 3-(((2-chloro-[1,1′-biphenyl]-4-yl)methyl)amino)-N-(3-((6-(pyridazin-4-yl)-1H-indazol-4-yl)amino)propyl)propanamide], the IC50 at intracellular CK2α was determined as 50.8 nM; on CK2α it was 0.19 nM; at CLK2, 235 nM.

For `N#Cc1n[nH]cc1-c1cc(NCCCNC(=O)CCNCc2ccc(-c3ccccc3)c(Cl)c2)c2cn[nH]c2c1` [Example 7, 3-(((2-chloro-[1,1′-biphenyl]-4-yl)methyl)amino)-N-(3-((6-(3-cyano-1H-pyrazol-4-yl)-1H-indazol-4-yl)amino)propyl)propanamide], the figures for the IC50 at intracellular CK2α, at CK2α and on CLK2 were 146 nM, 0.25 nM and 69.8 nM, respectively.

As for `O=C(CCNCc1ccc(-c2ccccc2)c(Cl)c1)NCCCNc1cc(-c2ccncc2)cc2[nH]nnc12` [Example 8, 3-(((2-chloro-[1,1′-biphenyl]-4-yl)methyl)amino)-N-(3-((6-(pyridin-4-yl)-1H-benzo[d][1,2,3]triazol-4-yl)amino)propyl)propanamide], the figures for the IC50 at intracellular CK2α, on CK2α and at CLK2 were 304 nM, 0.62 nM and 1100 nM, respectively.

Regarding `Cc1nc(-c2cc(NCCCNC(=O)CCNCc3ccc(-c4ccccc4)c(Cl)c3)c3cn[nH]c3c2)c[nH]1` [Example 9, 3-(((2-chloro-[1,1′-biphenyl]-4-yl)methyl)amino)-N-(3-((6-(2-methyl-1H-imidazol-4-yl)-1H-indazol-4-yl)amino)propyl)propanamide], the values for the IC50 at intracellular CK2α, on CK2α and at CLK2 were 8550 nM, 7.69 nM and 568 nM, respectively.

For the compound `N#Cc1cc(NCCCNC(=O)CCNCc2ccc(-c3ccccc3)c(Cl)c2)c2cn[nH]c2c1` [Example 10, 3-(((2-chloro-[1,1′-biphenyl]-4-yl)methyl)amino)-N-(3-((6-cyano-1H-indazol-4-yl)amino)propyl)propanamide], the IC50 is 449 nM on intracellular CK2α, 6.96 nM at CK2α and 132 nM at CLK2.

For the compound `O=C(CCNCc1ccc(-c2ccccc2)c(Cl)c1)NCCCNc1cc(-n2cnnc2)cc2[nH]ncc12` [Example 11, N-(3-((6-(4H-1,2,4-triazol-4-yl)-1H-indazol-4-yl)amino)propyl)-3-(((2-chloro-[1,1′-biphenyl]-4-yl)methyl)amino)propanamide], the IC50 at intracellular CK2α was 249 nM; at CK2α, 0.29 nM; at CLK2, 31.7 nM.

For `O=C(CCNCc1ccc(-c2ccccc2)c(Cl)c1)NCCC(=O)Nc1cc(-n2cnnc2)cc2[nH]ncc12` [Example 12, N-(6-(4H-1,2,4-triazol-4-yl)-1H-indazol-4-yl)-3-(3-(((2-chloro-[1,1′-biphenyl]-4-yl)methyl)amino)propanamido)propanamide], the IC50 at intracellular CK2α was 6830 nM; on CK2α it was 0.6 nM; at CLK2, 612 nM.

Regarding `O=C(CCNCc1cccc(Cl)c1)NCCCNc1cc(-n2cnnc2)cc2[nH]ncc12` [Example 13, N-(3-((6-(4H-1,2,4-triazol-4-yl)-1H-indazol-4-yl)amino)propyl)-3-((3-chlorobenzyl)amino)propanamide], the IC50 at intracellular CK2α turned out to be 3890 nM; on CK2α it was 1.43 nM; at CLK2, 51.7 nM.

As for `Clc1cc(CNCCc2cn(CCNc3cc(-n4cnnc4)cc4[nH]ncc34)nn2)ccc1-c1ccccc1` [Example 14, N-(2-(4-(2-(((2-chloro-[1,1′-biphenyl]-4-yl)methyl)amino)ethyl)-1H-1,2,3-triazol-1-yl)ethyl)-6-(4H-1,2,4-triazol-4-yl)-1H-indazol-4-amine], the IC50 on intracellular CK2α is 2120 nM; on CK2α it was 1.6 nM; at CLK2 it was 322 nM.

In the case of `O=C(Cc1cnc(CCNCc2ccc(OC(F)(F)F)c(Cl)c2)o1)Nc1cc(-n2cnnc2)cc2[nH]ncc12` [Example 15, N-(6-(4H-1,2,4-triazol-4-yl)-1H-indazol-4-yl)-2-(2-(2-((3-chloro-4-(trifluoromethoxy)benzyl)amino)ethyl)oxazol-5-yl)acetamide], the values for the IC50 on intracellular CK2α, on CK2α and on CLK2 were > 50000 nM, 27.1 nM and 1830 nM, respectively.

Turning to `O=C(O)c1cc(NCCCCNCCCCNCc2ccc(-c3ccccc3)c(Cl)c2)c2cn[nH]c2c1` [Example 60, 4-((4-((4-(((2-chloro-[1,1′-biphenyl]-4-yl)methyl)amino)butyl)amino)butyl)amino)-1H-indazole-6-carboxylic acid], the IC50 was found to be 215 nM at CK2α and 30200 nM at CLK2.
